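Each compound was tested at five concentrations against cells in 96-well plates for 48 hours. The concentration for 50% growth inhibition is given as GI50.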 Activity calls are given as the source filed them. Cut-off read from the data, not from the text of the source: active = GI50 up to about 1.1 µM and inactive = higher. A value given as a limit tells only on which side of the number the result lay.

Data on twelve molecules can be found in ChEMBL document CHEMBL1201862, “PubChem BioAssay data set” (2004).

Some test systems named below: MDA-MB-231; UACC-62; Malme-3M; SK-MEL-5; OVCAR-8; SNB-19; DU-145; SNB-75; ACHN; OVCAR-5; UACC-257; NCI-H460; HCC 2998; K562; HT-29; CCRF-CEM; HCT-15.
Experiment in all cases: growth of human tumour cells (NCI), 48 h

As to `O=C1C2=C(C(=O)c3c(O)ccc(O)c31)[C@@H](O)[C@@H](O)[C@@H](O)C2`, the GI50 was 2.14 µM (inactive) in the test on MDA-MB-231; 3.52 µM (inactive) in the test on UACC-62; 1.14 µM (inactive) in the test on Malme-3M; 1.74 µM (inactive) in the test on SK-MEL-5; 2.31 µM (inactive) in the test on OVCAR-8; 13.1 µM (inactive) in the test on SNB-19. The GI50 is 2.72 µM (inactive) with DU-145; 3.43 µM (inactive) in the test on SNB-75; 2.52 µM (inactive) in the test on ACHN; 7.96 µM (inactive) with OVCAR-5; 0.957 µM (active) in the test on UACC-257; 4.71 µM (inactive) in the test on NCI-H460. Further, the GI50 is 7.33 µM (inactive) in the test with HCC 2998; 2.77 µM (inactive) in the test on K562; 1.32 µM (inactive) in the test with HT-29; 0.0486 µM (active) with CCRF-CEM; 2.76 µM with HCT-15.
With `CCn1c(-c2cc(OC)cc(OC)c2)nc2c1C(=O)c1ccccc1C2=O`, the GI50 is > 100 µM (inactive) with MDA-MB-231; 20.6 µM (inactive) in the test on UACC-62; > 100 µM (inactive) in the test on Malme-3M; > 100 µM (inactive) in the test with SK-MEL-5; > 100 µM (inactive) in the test with OVCAR-8; > 100 µM (inactive) in the test on SNB-19. Also, the GI50 is > 100 µM (inactive) with DU-145; 22.4 µM (inactive) with SNB-75; > 100 µM (inactive) in the test on ACHN; > 100 µM (inactive) with OVCAR-5; > 100 µM (inactive) with UACC-257; > 100 µM (inactive) in the test with NCI-H460. Also, the GI50 in the test with HCC 2998 was > 100 µM (inactive); with K562 it was > 100 µM (inactive); in the test on HT-29, > 100 µM (inactive); in the test with CCRF-CEM it was > 100 µM (inactive); in the test on HCT-15, over 100 µM.
For the molecule `O=C(Cn1c(C(=O)/C=C/c2ccco2)nc2ccccc21)c1ccc(Cl)cc1`, the GI50 was 20.2 µM (inactive) with MDA-MB-231; 22.8 µM (inactive) with UACC-62; 3.06 µM (inactive) with Malme-3M; 19.9 µM (inactive) in the test with SK-MEL-5; 27.5 µM (inactive) with SNB-19; 36.1 µM (inactive) in the test with DU-145. Further, the GI50 is 29 µM (inactive) in the test on SNB-75; 26.2 µM (inactive) in the test on ACHN; > 100 µM (inactive) in the test with OVCAR-5; 14.5 µM (inactive) in the test with UACC-257; 12.3 µM (inactive) in the test with NCI-H460; 17.1 µM (inactive) in the test on HCC 2998. Further, the GI50 is 11.7 µM (inactive) in the test on K562, 26.1 µM (inactive) in the test on HT-29, 3.58 µM (inactive) with CCRF-CEM and 20.6 µM with HCT-15.
Turning to `CN(C)CCCNc1nnc(NCCCN(C)C)c2c(=O)c3sccc3[nH]c12`, the GI50 with MDA-MB-231 was 6 µM (inactive); in the test on UACC-62, 14.2 µM (inactive); in the test with Malme-3M it was 15.5 µM (inactive); in the test with SK-MEL-5 it was 1.4 µM (inactive); in the test on OVCAR-8, 3 µM (inactive); in the test with SNB-19, 31.7 µM (inactive). Further, the GI50 with DU-145 is 8.75 µM (inactive); in the test on SNB-75, 6.73 µM (inactive); in the test with ACHN, 5.85 µM (inactive); with OVCAR-5 it was 16.6 µM (inactive); in the test on UACC-257 it was 22.4 µM (inactive); in the test on NCI-H460, 3.51 µM (inactive). Also, the GI50 in the test on HCC 2998 was 6.68 µM (inactive); with K562 it was 3.48 µM (inactive); with CCRF-CEM it was 9.48 µM (inactive); with HCT-15, 6.62 µM.
Consider `CCOC(=O)c1nc2ccccc2nc1Nc1ccc(OC)cc1`, for which the GI50 in the test with MDA-MB-231 is 20.6 µM (inactive); with UACC-62 it was 28.5 µM (inactive); with Malme-3M it was 93.8 µM (inactive); in the test with SK-MEL-5, 30 µM (inactive); with OVCAR-8, 73.3 µM (inactive); with SNB-19, 16.5 µM (inactive). For the same molecule, the GI50 was 73.1 µM (inactive) in the test on DU-145; 37.9 µM (inactive) in the test on SNB-75; 32.4 µM (inactive) with ACHN; 83.8 µM (inactive) in the test with OVCAR-5; 49.5 µM (inactive) in the test with UACC-257; 40 µM (inactive) with NCI-H460. Moreover, the GI50 in the test with HCC 2998 is > 100 µM (inactive); in the test on K562, > 100 µM (inactive); with HT-29, > 100 µM (inactive); in the test on CCRF-CEM, > 100 µM (inactive); in the test on HCT-15 it was over 100 µM.
Regarding `S=C1N=C2C(=N1)n1c3c(c4ccccc41)CCCC23` (configuration not stated), the GI50 with MDA-MB-231 is 66.4 µM (inactive); with UACC-62, 59.2 µM (inactive); in the test with Malme-3M, 64.9 µM (inactive); in the test with SK-MEL-5 it was 36.8 µM (inactive); with OVCAR-8, 32.1 µM (inactive); in the test with SNB-19, 56.8 µM (inactive). Moreover, the GI50 in the test with DU-145 was > 100 µM (inactive); in the test on SNB-75 it was > 100 µM (inactive); with ACHN, > 100 µM (inactive); with OVCAR-5, > 100 µM (inactive); in the test on UACC-257 it was 47.4 µM (inactive); in the test on NCI-H460, 38.6 µM (inactive). In addition, the GI50 in the test with HCC 2998 is > 100 µM (inactive); in the test with K562, 33.1 µM (inactive); in the test on HT-29, 35.1 µM (inactive); in the test on CCRF-CEM, 48.6 µM (inactive); in the test with HCT-15, 46.3 µM.
Consider `CC1CN=C(N(C(=O)Nc2ccccc2)c2ccccc2)S1` (configuration not stated), for which the GI50 was 27.4 µM (inactive) with MDA-MB-231; 23 µM (inactive) in the test on Malme-3M; 16.7 µM (inactive) in the test with SK-MEL-5; 40.3 µM (inactive) with OVCAR-8; 88.1 µM (inactive) in the test with SNB-19; 53.2 µM (inactive) in the test with DU-145. In addition, the GI50 in the test on SNB-75 is 13.3 µM (inactive); in the test with ACHN it was 37.2 µM (inactive); in the test on OVCAR-5 it was 90.4 µM (inactive); in the test with UACC-257 it was 17.1 µM (inactive); in the test on NCI-H460, 30.1 µM (inactive); in the test with HCC 2998, 35.9 µM (inactive). The GI50 in the test with K562 is 43.9 µM (inactive); in the test with HT-29, 17.9 µM (inactive); in the test with CCRF-CEM, 23.4 µM (inactive); in the test with HCT-15 it was 37.2 µM.
Turning to `CCOC(=O)C(C(=S)SC)c1nn2c(=O)cc(C)nc2s1` (configuration not stated), the GI50 is 19.5 µM (inactive) with MDA-MB-231; 20.4 µM (inactive) in the test on UACC-62; 16.4 µM (inactive) in the test on Malme-3M; 18.7 µM (inactive) in the test with SK-MEL-5; 19.3 µM (inactive) in the test on OVCAR-8; 21.3 µM (inactive) in the test on SNB-19. The GI50 in the test with DU-145 is 17.9 µM (inactive); with SNB-75, 20.7 µM (inactive); with ACHN, 20.2 µM (inactive); with OVCAR-5 it was 20.8 µM (inactive); in the test on UACC-257, 21 µM (inactive); in the test with NCI-H460 it was 18.8 µM (inactive). Besides, the GI50 was 25.5 µM (inactive) with HCC 2998; 18.2 µM (inactive) in the test with K562; 21.5 µM (inactive) with HT-29; 29.4 µM (inactive) in the test with CCRF-CEM; 20.3 µM in the test with HCT-15.
Take `C=C1C(=O)OC2CC3(C)CCCC(C)C3=CC12` (configuration not stated): the GI50 with MDA-MB-231 was 12.1 µM (inactive); with UACC-62 it was 4.08 µM (inactive); in the test on Malme-3M it was 3.9 µM (inactive); in the test with SK-MEL-5 it was 1.55 µM (inactive); with OVCAR-8, 12.8 µM (inactive); in the test on SNB-19 it was 13.1 µM (inactive). Further, the GI50 in the test on DU-145 was 3.67 µM (inactive); in the test with SNB-75, 2.64 µM (inactive); in the test on ACHN it was 2.61 µM (inactive); with OVCAR-5, 11.2 µM (inactive); in the test on UACC-257 it was 5.38 µM (inactive); in the test on NCI-H460 it was 3.03 µM (inactive). The GI50 with HCC 2998 was 3.79 µM (inactive); in the test with K562 it was 2.35 µM (inactive); with HT-29 it was 3.3 µM (inactive); with CCRF-CEM it was 1.21 µM (inactive); with HCT-15, 2.1 µM.
Regarding `COc1ccc(/C=C2\N=C3NC(=O)C(N4CCCCC4)=C(N)N3C2=O)cc1`, the GI50 with MDA-MB-231, in the test with Malme-3M, in the test with SK-MEL-5, with OVCAR-8, with SNB-19 and in the test with DU-145 was > 100 µM (inactive) throughout. For the same molecule, the GI50 is 24.8 µM (inactive) in the test with SNB-75; 70.6 µM (inactive) in the test on ACHN; > 100 µM (inactive) in the test on OVCAR-5; > 100 µM (inactive) with UACC-257; > 100 µM (inactive) in the test on HCC 2998; 62.4 µM (inactive) in the test with K562. Moreover, the GI50 is > 100 µM (inactive) in the test with HT-29, > 100 µM (inactive) with CCRF-CEM and over 100 µM in the test with HCT-15.
As to `COc1cc(OC)c(OC)cc1/C=C/c1nc2ccccc2s1`, the GI50 in the test on MDA-MB-231, in the test on Malme-3M, with SK-MEL-5, with OVCAR-8, in the test with SNB-19 and with DU-145 was > 100 µM (inactive) in each case. For the same molecule, the GI50 was 91.4 µM (inactive) with SNB-75; > 100 µM (inactive) in the test on ACHN; > 100 µM (inactive) with OVCAR-5; > 100 µM (inactive) in the test with UACC-257; > 100 µM (inactive) in the test with NCI-H460; > 100 µM (inactive) in the test on HCC 2998. The GI50 in the test with K562 is 5.42 µM (inactive); with HT-29, 38.7 µM (inactive); in the test with CCRF-CEM, > 100 µM (inactive); in the test on HCT-15, over 100 µM.
For `CCOC(=O)c1ccc(NC(=O)O/N=C(/Cl)CCl)cc1`, the GI50 in the test with MDA-MB-231 was > 100 µM (inactive); in the test with Malme-3M, 81.1 µM (inactive); with SK-MEL-5, 31.6 µM (inactive); in the test on OVCAR-8, 41 µM (inactive); in the test on SNB-19 it was 86.1 µM (inactive); in the test on DU-145 it was 65.3 µM (inactive). Besides, the GI50 in the test on SNB-75 is 4.01 µM (inactive); in the test on ACHN, 12.6 µM (inactive); in the test with OVCAR-5 it was 86.7 µM (inactive); in the test on UACC-257, 44.6 µM (inactive); in the test with NCI-H460 it was 47.9 µM (inactive); with HCC 2998, > 10 µM (inactive). Also, the GI50 was 25.2 µM (inactive) in the test on K562, 54.6 µM (inactive) with HT-29, 21.5 µM (inactive) with CCRF-CEM and 5.57 µM with HCT-15.
